Columns and labels:
[1] = tested on: BRAFV600E-mutant lung cancer patient-derived xenografts (PDX); test: ERK inhibitor monotherapy of lung cancer PDX, tumor growth; format: in vivo, mice; conditions: SCH984 75 mpk; FIG. 1B
Description: These were established as described^38,39, in accordance with the Memorial Sloan Kettering Cancer Center Institutional Review Board. Informed consent was obtained in all cases. All animal studies were done in accordance with protocols approved by the MSKCC Animal Care and Use Committee. Melanoma models were generated previously40. Patient derived tissue (biopsy or surgical resection) or pleural fluid was used to establish the lung cancer models in Table I. For biopsy or resection specimens, the tumor sample was minced under aseptic conditions, vigorously washed in 1×PBS, passed through a 60-μm filter, centrifuged, and then re-suspended in 500 μL of Matrigel (BD Biosciences) at 4° C. For pleural effusions, the fluid was centrifuged in order to isolate the cellular fraction and washed several times in cold PBS. Cells were then injected subcutaneously in the flanks of NSG mice and monitored for tumor growth. […]
Nu/nu athymic or NSG mice were obtained from the Harlan Laboratories and maintained in compliance with IACUC guidelines. […] Doubling times were calculated by fitting tumor volumes into exponential growth curves and determining their rate constants in Prism. […] Statistically significant differences in rate constants were determined by using the extra-sum-of-squares F test (with p<0.05) embedded in Prism. […]

ERK = conditions: cited from earlier work

**Q.** For `CS[C@@]1(C(=O)Nc2ccc3[nH]nc(-c4ccc(OC(C)C)nc4)c3c2)CCN(CC(=O)N2CC=C(c3ccc(-c4ncn(C)n4)cc3)CC2)C1` [SCH984], which “PDX tested in which growth was inhibited” value [1] is on record?
**A.** Its value is 3/4.

**Q.** What about the duration of response [1] of the same molecule?
**A.** The duration of response was “several weeks”.

**Q.** And the “effect on ERK kinase activity and ERK phosphorylation by MEK” value (ERK; ATP-competitive inhibitor)?
**A.** The value was “inhibits the kinase activity of ERK and prevents its phosphorylation by MEK”.

**Q.** And the “preference for phosphorylation state of ERK” value (ERK)?
**A.** Its value is “preferentially targets unphosphorylated ERK”.

Reference: patent US11590133B2, “Methods and compositions for treatment of BRAF mutant cancers” (MEMORIAL SLOAN KETTERING CANCER CENTER, priority 2016, dated 2023)
